Excerpt in data set [1]: (§1) The toxic metals were reported as μg/g creatinine in order to account for urine dilution variations.
as §1, §1, §1

The test system of data set [2] is neuronal damage in tissue culture. Particulars: cited from earlier work.
Data set [3] has as its system rats of the JCL-SD strain. The conditions noted are these: 0.3 to 2 mg/kg intravenously; male more susceptible; cited from earlier work.
The test system of another data set is susceptible mouse strain. The conditions noted are these: weight- and age-adjusted 1990s US immunization schedule; cited from earlier work.
The next data set relates to neurons. The conditions noted are these: nanomolar (nM) to micromolar (μM) concentrations, within hours of exposure; cited from earlier work.
The conditions of data set [4]: cited from earlier work.
For another data set, the system named is chick embryo. The conditions noted are these: single 50 μg of mercury dose; cited from earlier work.
The conditions of data set [5]: following three days of oral chelation with DMSA; cited from earlier work.
The test system of data set [6] is subject suffering from autism or an autism spectrum disorder. Briefly: Clinical observation of symptoms (physician, parents, educators). The class given is in vivo, human.
Where [7] appears, read: Child X (autistic person), urine collected Nov. 5, 2000, during DMSA treatment, creatinine 43.4 mg/dL.
Where [8] appears, read: Child X, urine collected Sep. 30, 2001, during DMSA treatment, creatinine 54 mg/dL.
[9] abbreviates: Child Y (autistic person), urine collected Jun. 29, 2002, during DMSA treatment, creatinine 6.9 mg/dL.
[10] abbreviates: Child Y, urine collected Dec. 24, 2002, during DMSA treatment, creatinine 8.6 mg/dL.

These results are taken from patent US20070254314A1, “Methods of treating autism and autism spectrum disorders” (priority 2004, published 2007).

Read-outs that look alike come from different tables or passages of the source.

With Beryllium, the “Toxic metals in urine, Results” value in data set [1] (setting [7]) is on record as “<dl*”; in data set [1] (setting [8]), “<dl”; in data set [1] (setting [9]), “<dl”; in data set [1] (setting [10]), “<dl”.
With Tungsten, the “Toxic metals in urine, Results” value in data set [1] (setting [7]) is on record as “<dl”; in [1] (setting [8]) it was 0.3 μg/g creatinine; in [1] (setting [9]) it was “<dl”; in data set [1] (setting [10]) it was 1.6 μg/g creatinine.
As to estrogen, the “Effect of concurrent exposure on mercury induced neuronal damage” value in [2] is on record as “ameliorated”.
Consider Thallium, for which the “Toxic metals in urine, Results” value in data set [1] (setting [7]) amounted to 0.2 μg/g creatinine; in data set [1] (setting [8]), 0.2 μg/g creatinine; in data set [1] (setting [9]) it was 0.9 μg/g creatinine; in data set [1] (setting [10]), 0.6 μg/g creatinine.
On to `[Cl][Hg][Cl]` [mercuric chloride], for which the Renal toxicity entry in data set [3] is reported as “acute renal tubular necrosis was produced”.
For `C[CH2][Hg][S]c1ccccc1C(=O)[O-].[Na+]` [thimerosal], the Neurotoxic effects entry in the data set with susceptible mouse strain is reported as “autistic symptoms in a susceptible mouse strain”. In addition, the Effects on neurons result with neurons is “inducing neuronal death, neurodegeneration, membrane damage, and DNA damage”. Further, in [4] (infant monkeys, doses comparable to the US dosing schedule), the “Passage of the blood-brain barrier” value is recorded as “crosses the blood-brain barrier”. In [4] (infant monkeys), the “Half-life of inorganic mercury in the brain” value is given as above 120 days, the “Maximum mercury concentration observed in the brain” value is “approximately 50 parts-per-billion” and the “Overall half-life of mercury in the brain” value was “approximately 24 days”. In addition, in data set [4] (thimerosal-treated infant monkeys, average following the dosing schedule), the “Inorganic mercury in the brains” value is given as 16 parts-per-billion. Besides, the “Fetal lethality and teratogenicity compared to controls” value in the data set with chick embryo was “significant fetal lethality and teratogenecity”.
Turning to Bismuth, the “Toxic metals in urine, Results” value in [1] (setting [7]) is listed as 0.8 μg/g creatinine; in data set [1] (setting [8]), “<dl”; in data set [1] (setting [9]), “<dl”; in data set [1] (setting [10]), “<dl”.
In the case of Arsenic, the “Toxic metals in urine, Results” value in data set [1] (setting [7]) was 98 μg/g creatinine; in data set [1] (setting [8]) it was 37 μg/g creatinine; in data set [1] (setting [9]), 31 μg/g creatinine; in data set [1] (setting [10]), 23 μg/g creatinine.
With Cadmium, the “Toxic metals in urine, Results” value is reported as 1.4 μg/g creatinine in data set [1] (setting [7]), 0.5 μg/g creatinine in data set [1] (setting [8]), “<dl” in [1] (setting [9]) and 1.6 μg/g creatinine in data set [1] (setting [10]).
In the same order, the values of Aluminum are 26 μg/g creatinine, 14 μg/g creatinine, “<dl*” and “<dl*”.
For Platinum, the “Toxic metals in urine, Results” value in data set [1] (setting [7]) is on record as 0.2 μg/g creatinine; in data set [1] (setting [8]), “<dl”; in data set [1] (setting [9]) it was “<dl”; in data set [1] (setting [10]), “<dl”.
As to `O=C(O)[C@@H](S)[C@@H](S)C(=O)O` [DMSA, meso-2,3-dimercaptosuccinic acid], the “Mercury in urine on DMSA treatment” value was “spilled toxic levels of mercury in their urine” in data set [1] (Child X, DMSA Oct. 21, 2000 through Feb. 3, 2002) and “spilled toxic levels of mercury in their urine” in [1] (Child Y, DMSA Jun. 26, 2002 to May 2, 2003). Moreover, the “Urinary mercury concentration, autistic children versus matched normal controls” value in data set [5] was “approximately 6 fold”. Moreover, in [6] (Child X), the “Clinical improvement as a result of DMSA treatment” value was “some improvement”. Besides, the “Improvement in autism on DMSA treatment” value in data set [6] (Child Y) is given as “did not show significant improvement”.
Take Lead: the “Toxic metals in urine, Results” value in data set [1] (setting [7]) was 12 μg/g creatinine; in data set [1] (setting [8]) it was 8.6 μg/g creatinine; in data set [1] (setting [9]) it was “<dl”; in [1] (setting [10]), “<dl”.
For the molecule `C[C@]12CC[C@H]3[C@@H](CCC4=CC(=O)CC[C@@]43C)[C@@H]1CC[C@@H]2O` [testosterone], in data set [2], the “Effect of concurrent exposure on mercury induced neuronal damage” value is “exacerbated”.
As for Antimony, the “Toxic metals in urine, Results” value is given as 0.4 μg/g creatinine in data set [1] (setting [7]), “<dl*” in data set [1] (setting [8]), “<dl” in data set [1] (setting [9]) and “<dl” in data set [1] (setting [10]).
